What was measured:
Haemonchus contortus = assay: In vivo nematode test Haemonchus contortus/sheep; conditions: experimentally infected sheep; orally and/or intravenously as pure active compound; complete cessation of oviposition (worm eggs in faeces) after treatment
Experimental: Haemonchus contortus/Sheep
Sheep experimentally infected with Haemonchus contortus were treated after expiry of the prepatency time of the parasite. The active compounds were administered orally and/or intravenously as pure active compound.
(§1) The degree of effectiveness is determined by quantitatively counting the worm eggs excreted with the faeces before and after treatment.
(§2) Complete cessation of oviposition after treatment means that the worms have been expelled or are so damaged that they no longer produce eggs (effective dose).
Active compounds tested and effective doses can be seen from the following tables.

[1] = test system: Trichostrongylus colubriformis; assay: In vivo nematode test Trichostrongylus colubriformis/sheep; conditions: experimentally infected sheep; orally and/or intravenously as pure active compound; complete cessation of oviposition (worm eggs in faeces) after treatment
Experimental: Trichostrongylus colubriformis/Sheep
Sheep experimentally infected with Trichostrongylus colubriformis were treated after expiry of the prepatency time of the parasite. The active compounds were administered orally and/or intravenously as pure active compound.
as §1, §2
Active compounds tested and effective doses can be seen from the following table.

SMILES | Effective dose (Haemonchus contortus) | Effective dose [1]
COC(=O)C(C)OC(=O)C(C)N(C)C(=O)N(C)C(=O)N(C)C [Example 2, Methyl N-methyl-N-trimethylallophanoyl-L-alanyl-D-lactate] | 5 mg/kg | 5 mg/kg
COC(=O)C1CCCCN1C(=O)C(C)OC(=O)C(C)N(C)C(=O)N(C)C(=O)N(C)C [Example 8, N-methyl-N-trimethylallophanoyl-L-alanyl-D-lactyl-L-homoproline Methyl Ester] | 5 mg/kg | 

From patent US7772190B2, “Didepsipeptide-based endoparasiticides, new didepsipeptides and process for preparing the same” (Bayer Animal Health GmbH, priority 1995, dated 2010)
